From article PMC11085872, “Structure-Based Design of Novel Thiazolone[3,2-a]pyrimidine Derivatives as Potent RNase H Inhibitors for HIV Therapy” (Molecules, 2024) come the findings set out here.

For data set [1], the target named is T1, HIV-1 RT-associated RNase H (Human immunodeficiency virus type 1 group M subtype B, UniProt P03366).
T1 construct: His-tagged p66/p51 HIV-1 RT group M subtype B; His tag; made in house; host or cells: Escherichia coli strain M15 (plasmid p6HRT-prot)
Put plainly: RNase H polymerase-independent cleavage assay. It is filed as biochemical. Particulars: for IC50: IC50, compound concentration required to reduce HIV-1 RT-associated RNase H activity by 50%, recombinant HIV-1 wt RT, hybrid RNA/DNA substrate, 37 °C, 1 hour. Here is the method:
The Ar^1 and Ar^2 aromatic segments of the molecule also approach the protein surface, through hydrophobic interactions. These findings provide important information for further structural optimization. All these newly designed thiazolone[3,2-a]pyrimidine derivatives were evaluated for their inhibitory activity against HIV RT-associated RNase H, using the diketo acid RDS1643 as positive control. […] The decrease in activity observed in compounds containing a sulfonic acid group might be attributed to the excessively strong acidity of the sulfonic acid group, which could protonate the diazo group within the molecule. […] When Ar^2 was changed from a phenyl group to a naphthyl group, the activity of compound 10f gained a great improvement over that of compound 10k. […] And when a negatively charged polar group was present at the 2-position of Ar^2, the inhibitory activity is enhanced. […]
3. Biology Experimental section
3.1 Expression and purification of recombinant HIV-1 RTs.
His-tagged p66/p51 HIV-1 RT group M subtype B coded in a p6HRT-prot plasmid was expressed in the Escherichia coli strain M15.1 Heterodimeric RTs were expressed essentially and purified as described.2 E. coli cells harboring the expression vector were cultured until reaching an optical density at 600 nm of 0.7. Induction of protein expression was achieved by treating the cells with 1.7 mM isopropyl β-D-1-thiogalactopyranoside (IPTG) for a duration of 4 hours. The subsequent purification of the protein was performed using a BioLogic LP system (BioRad) employing a combination of immobilized metal affinity chromatography and ion exchange […]
To initiate the purification process, the cell pellets were resuspended in lysis buffer at a ratio of 1:2 (cell pellet volume: lysis buffer volume). The lysis buffer used consisted of 50 mM sodium phosphate buffer with a pH of 7.8, supplemented with 0.5 mg/ml lysozyme. The resuspended cells were incubated on ice for 20 minutes. Following this, NaCl was added to achieve a final concentration of 0.3 M. The cells were then subjected to sonication, with four cycles of 60 seconds each, alternating between one second on and one second off. Subsequently, the cell lysate was centrifuged at 30, 000×g for 1 […]
The supernatant obtained from the centrifugation step was loaded onto a Ni2+-NTA-Sepharose column that had been pre-equilibrated with a loading buffer consisting of 50 mM sodium phosphate buffer (pH 7.8), 0.3 M NaCl, 10% glycerol, and 10 mM imidazole. The column was washed with a buffer containing 50 mM sodium phosphate buffer (pH 6.0), 0.3 M NaCl, 10% glycerol, and 80 mM imidazole. The target protein, RT, was eluted using an imidazole gradient ranging from 0.08 M to 0.5 M in the wash buffer. Fractions containing the enzyme were collected and combined, and then diluted 1:1 with 50 mM sodium phosphate buffer (pH 7.0) containing 10% glycerol. The diluted protein sample was loaded onto a Hi-trap heparin HP column that had been pre-equilibrated with 10 column volumes of a loading buffer consisting of 50 mM sodium phosphate buffer (pH 7.0), 10% glycerol, and 150 mM NaCl. The column was washed with the loading buffer, and the RT enzyme was eluted using Elute Buffer 2, which
(1 picture or pasted object on this page, not shown here) […]
comprised 50 mM sodium phosphate buffer (pH 7.0), 10% glycerol, and 1 M NaCl.
The eluted fractions containing the purified protein were collected, and the protein was subsequently dialyzed and stored in a buffer composed of 50 mM Tris-HCl (pH 7.0), 25 mM NaCl, 1 mM EDTA, and 50% glycerol. The catalytic activities of the purified protein samples were determined, and aliquots were stored at -80 °C for further use.
3.2 RNase H Polymerase-Independent Cleavage Assay
The HIV-1 RT-associated RNase H activity was measured as described.3 In summary, the reaction was performed in a black 96-well plate with a total volume of 100 μL. The reaction mix consisted of 50 mM Tris HCl (pH 7.8), 6 mM MgCl2, 1 mM dithiothreitol […]

SMILES strings stand for the structures.

In the case of `COC(=O)C1=C(C)N=C2SC(=NNc3ccccc3C(C)=O)C(=O)N2C1c1ccc(OC)cc1` (centres unmarked) [Compound 12a, Methyl 2-(2-(2-acetylphenyl)hydrazineylidene)-5-(4-methoxyphenyl)-7-methyl-3-oxo-2,3-dihydro-5H-thiazolo[3,2-a]pyrimidine-6-carboxylate], the melting point was in the range of 199 to 201 °C. In addition, the IC50 in data set [1] stood at 3.98 ± 0.3 µM.
In turn, `COC(=O)C1=C(C)N=C2S/C(=N\Nc3ccc4ccccc4c3S(=O)(=O)O)C(=O)N2C1c1ccc(OC)cc1` (centres unmarked) [Compound 12f] registered a melting point of 271 to 273 °C. Besides, the 50% inhibitory concentration (IC50) in data set [1] worked out at 3.28 µM.
As for `COC(=O)C1=C(C)N=C2SC(=NNc3ccccc3)C(=O)N2C1c1ccc(OC)c(OC)c1OC` (centres unmarked) [Compound 11b, Methyl 7-methyl-3-oxo-2-(2-phenylhydrazineylidene)-5-(2,3,4-trimethoxyphenyl)-2,3-dihydro-5H-thiazolo [3,2-a]pyrimidine-6-carboxylate], the melting point is 189 to 192 °C. Besides, in data set [1], the half-inhibitory concentration (IC50) stood at 48.9 ± 4.73 µM.
The compound `COC(=O)C1=C(C)N=C2SC(=NNc3ccccc3OC)C(=O)N2C1c1ccc(OC)c(OC)c1OC` (centres unmarked) [Compound 11a, Methyl 2-(2-(2-methoxyphenyl)hydrazineylidene)-7-methyl-3-oxo-5-(2,3,4-trimethoxyphenyl)-2,3-dihydro-5H-thiazolo[3,2-a]pyrimidine-6-carboxylate] showed a melting point of 178 to 180 °C. Also, the IC50 in data set [1] stood at 11.8 ± 0.91 µM.
The compound `COC(=O)C1=C(C)N=C2SC(=NNc3cc(OC)c(OC)c(OC)c3)C(=O)N2C1c1ccccc1` (centres unmarked) [Compound 10c, Methyl 7-methyl-3-oxo-5-phenyl-2-(2-(3,4,5-trimethoxyphenyl)hydrazineylidene)-2,3-dihydro-5H-thiazolo[3,2-a]pyrimidine-6-carboxylate] displayed a melting point of 211 to 213 °C. Also, the IC50 in data set [1] is 24.4 ± 1.25 µM.
`COC(=O)C1=C(C)N=C2SC(=NNc3cccc([N+](=O)[O-])c3)C(=O)N2C1c1ccc(OC)c(OC)c1OC` (centres unmarked) [Compound 11d, Methyl 7-methyl-2-(2-(3-nitrophenyl)hydrazineylidene)-3-oxo-5-(2,3,4-trimethoxyphenyl)-2,3-dihydro-5H-thiazolo[3,2-a]pyrimidine-6-carboxylate] had a melting point of 236 to 238 °C. For the same compound, the IC50 in data set [1] worked out at 10.1 ± 1.64 µM.
For the compound `COC(=O)C1=C(C)N=C2SC(=NNc3cccc(C(=O)OC)c3)C(=O)N2C1c1ccc(OC)cc1` (centres unmarked) [Compound 12c, Methyl 2-(2-(3-(methoxycarbonyl)phenyl)hydrazineylidene)-5-(4-methoxyphenyl)-7-methyl-3-oxo-2,3-dihydro-5H-thiazolo[3,2-a]pyrimidine-6-carboxylate], the melting point fell in the range of 209 to 211 °C. Further, the half-inhibitory concentration (IC50) in data set [1] was 4.71 ± 0.86 µM.
For the compound `COC(=O)C1=C(C)N=C2SC(=NNc3cccc(C(C)=O)c3)C(=O)N2C1c1ccc(OC)c(OC)c1OC` (centres unmarked) [Compound 11k, Methyl 2-(2-(3-acetylphenyl)hydrazineylidene)-7-methyl-3-oxo-5-(2,3,4-trimethoxyphenyl)-2,3-dihydro-5H-thiazolo[3,2-a]pyrimidine-6-carboxylate], the melting point was 216 to 219 °C. Moreover, in data set [1], the concentration for half-maximal inhibition (IC50) was 22 ± 0.36 µM.
Take `COC(=O)C1=C(C)N=C2SC(=NNc3ccccc3C(C)=O)C(=O)N2C1c1ccccc1` (centres unmarked) [Compound 10g, Methyl 2-(2-(2-acetylphenyl)hydrazineylidene)-7-methyl-3-oxo-5-phenyl-2,3-dihydro-5H-thiazolo[3,2-a]pyrimidine-6-carboxylate]: the melting point was in the range of 199 to 202 °C. Besides, the concentration for half-maximal inhibition (IC50) in data set [1] stood at 9.01 ± 2.17 µM.
`COC(=O)C1=C(C)N=C2SC(=NNc3cc(OC)c(OC)c(OC)c3)C(=O)N2C1c1ccc(OC)cc1` (centres unmarked) [Compound 12e, Methyl 5-(4-methoxyphenyl)-7-methyl-3-oxo-2-(2-(3,4,5-trimethoxyphenyl)hydrazineylidene)-2,3-dihydro-5H-thiazolo[3,2-a]pyrimidine-6-carboxylate]: the melting point was in the range of 204 to 206 °C. Further, in data set [1], the concentration for half-maximal inhibition (IC50) was 8.99 ± 0.27 µM.
Turning to `COC(=O)C1=C(C)N=C2S/C(=N\Nc3ccccc3S(=O)(=O)O)C(=O)N2C1c1ccccc1` (centres unmarked) [Compound 10k, (2-(6-(Methoxycarbonyl)-7-methyl-3-oxo-5-phenyl-5H-thiazolo[3,2-a]pyrimidin-2(3H)-ylidene)hydrazineyl)benzenesulfonic acid], the melting point fell in the range of 262 to 266 °C. Further, in data set [1], the IC50 was over 100 µM. Also, in data set [1] (read-out: Percentage of the control activity measured at the indicated compound concentration), the remaining activity at 100 µM was 85%.
